Assay results from article PMC12371494, “Discovery of YTHDF2 Ligands by Fragment-Based Design” (ACS Bio & Med Chem Au, 2025).

Columns and labels:
GST-YTHDF2 = target: T1, GST-YTHDF2 (Homo sapiens, UniProt Q9Y5A9); assay: HTRF-based binding assay, competition with m6A-oligoRNA, DF2; conditions: for IC50: dose-response, competitor m6A-oligoRNA, read-out: DF2 IC50 (HTRF assay); for % at 100 µM / Single-dose residual signal at 100 µM, DF2: 100 µM compound; for Residual signal at 1 mM concentration: 1 mM compound, relative to control, average of two technical replicates, * = interference with the assay; for Single-dose residual signal at 100 µM, DF2: normalized
T1 construct: made in house
T1 sequence (Q9Y5A9 1-579): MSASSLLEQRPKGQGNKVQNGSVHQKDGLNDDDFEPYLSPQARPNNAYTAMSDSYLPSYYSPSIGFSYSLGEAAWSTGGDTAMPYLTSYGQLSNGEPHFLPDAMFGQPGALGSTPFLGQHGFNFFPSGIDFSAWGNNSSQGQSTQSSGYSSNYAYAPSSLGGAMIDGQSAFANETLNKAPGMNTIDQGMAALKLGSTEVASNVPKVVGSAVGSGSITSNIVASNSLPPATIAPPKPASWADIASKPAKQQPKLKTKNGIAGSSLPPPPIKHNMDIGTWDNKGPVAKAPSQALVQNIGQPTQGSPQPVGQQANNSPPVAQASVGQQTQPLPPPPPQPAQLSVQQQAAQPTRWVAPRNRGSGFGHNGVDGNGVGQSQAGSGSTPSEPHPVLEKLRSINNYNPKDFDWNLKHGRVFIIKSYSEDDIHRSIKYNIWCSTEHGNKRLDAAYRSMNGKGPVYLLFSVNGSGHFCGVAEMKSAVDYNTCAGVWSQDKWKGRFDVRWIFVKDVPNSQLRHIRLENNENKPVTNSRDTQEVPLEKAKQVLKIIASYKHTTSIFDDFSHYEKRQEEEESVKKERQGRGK

YTHDC2 = target: T2, YTHDC2 (Homo sapiens, UniProt Q9H6S0); assay: DNA-fluorescence polarization (FP) competition assay, DC2; assay type: binding; conditions: Cheng-Prusoff from FP IC50, probe Kd 7 nM; two biological replicates
T2 construct: YTH domain of YTHDC2 (residues 1285–1424, cloned into the pGEX-6P-1 vector); made in house; host or cells: Rosetta (DE3) cells (E. coli)
T2 sequence (Q9H6S0 1285-1424): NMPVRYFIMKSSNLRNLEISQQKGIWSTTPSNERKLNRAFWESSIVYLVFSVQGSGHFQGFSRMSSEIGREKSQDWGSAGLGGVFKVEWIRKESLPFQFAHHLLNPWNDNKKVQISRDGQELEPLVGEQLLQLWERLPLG
Protocol: The binding affinity for DC1 could not be evaluated by HTRF because of interference of the compounds with the assay, which has a smaller assay window when performed with DC1 compared to the DF proteins. Thus, the FP assay was used to evaluate binding to DC1 and DC2.
The N-terminally GST-tagged YTH domain of YTHDC2 (residues 1285–1424, cloned into the pGEX-6P-1 vector) was overexpressed in Rosetta (DE3) cells grown overnight at 20 °C following induction with 0.4 mM isopropyl-β-D-thiogalactopyranoside (IPTG) at an OD600 of 0.8. The cells were harvested and resuspended in a lysis buffer containing 100 mM Tris–HCl (pH 8.0) and 500 mM NaCl. After cell lysis, the lysate was clarified by centrifugation at 48,000g for 1 h, and the soluble proteins were loaded onto a column packed with Glutathione Sepharose 4B (GE Healthcare), then eluted with 20 mM reduced glutathione in lysis buffer. Finally, a size-exclusion chromatography step (HiLoad 16/600 Superdex 200 pg column, GE Healthcare) was performed to further purify the protein in 20 mM Tris–HCl (pH 7.4) and 150 mM NaCl.
(§1) For fluorescence polarization (FP) experiments, a 5′-fluorescein-labeled m^6A-DNA probe (5′-FAM-[…](m6A)-CTAAGCT-3′) was synthesized by Microsynth AG.
(§2) The final concentration of the fluorescein-labeled DNA was kept constant at 3 nM. For YTHDC2 measurements, the protein concentration was set to 25 nM, while for YTHDF2 measurements, it was set to 10 nM, and for YTHDC1, it was set at 15 nM. The compound concentration was serially diluted to obtain the dose–response curve. The competition experiments were conducted in a final volume of 20 μL in a buffer containing 20 mM Tris–HCl (pH 7.4), 150 mM NaCl, and 0.01% bovine serum albumin (BSA), using a 384-well black flat-bottomed microplate (Corning 3575).
(§3) After incubating the mixture for 1 h, the anisotropy values were measured using a Tecan SPARK plate reader with 485/20 nm excitation and 535/25 nm emission polarization filters, suitable for fluorescein, at 25 °C. To obtain the equilibrium dissociation constant (K d), the IC50 values were first derived by fitting a dose–response curve to the data using nonlinear regression analysis in GraphPad Prism. These IC50 values were then converted to K d by using the Cheng–Prusoff equation: Kd=IC50/1+[L]/Kdprobe
(§4) IC50 is the observed value from FP assay, [L] is the probe concentration used, and K d ^probe is the binding affinity of probe for the target.

GST-YTHDF1 = target: T3, GST-YTHDF1 (Homo sapiens, UniProt Q9BYJ9); assay: HTRF-based binding assay, DF1; conditions: HTRF, 100 µM compound, normalized
T3 construct: made in house
T3 sequence (Q9BYJ9 1-559): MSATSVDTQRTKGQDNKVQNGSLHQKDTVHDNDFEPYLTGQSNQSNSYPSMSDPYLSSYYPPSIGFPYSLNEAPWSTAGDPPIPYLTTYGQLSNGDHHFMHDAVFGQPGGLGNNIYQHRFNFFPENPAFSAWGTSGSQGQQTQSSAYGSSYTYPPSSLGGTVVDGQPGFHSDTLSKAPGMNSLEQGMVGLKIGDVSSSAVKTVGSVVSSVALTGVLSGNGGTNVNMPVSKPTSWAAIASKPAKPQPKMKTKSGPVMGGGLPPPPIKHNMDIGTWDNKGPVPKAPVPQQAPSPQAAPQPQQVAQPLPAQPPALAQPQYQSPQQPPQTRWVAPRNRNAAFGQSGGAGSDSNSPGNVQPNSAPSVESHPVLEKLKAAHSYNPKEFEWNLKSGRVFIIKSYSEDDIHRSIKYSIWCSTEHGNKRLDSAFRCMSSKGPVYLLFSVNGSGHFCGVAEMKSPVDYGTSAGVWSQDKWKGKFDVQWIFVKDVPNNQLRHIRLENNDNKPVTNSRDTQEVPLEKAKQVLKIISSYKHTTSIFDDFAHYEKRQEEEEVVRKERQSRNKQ
Protocol: (§5) The HTRF-based assay was employed to evaluate the selectivity of the series against other DF proteins.
(§6) A dose–response experiment on DF1 and DF3 was conducted for compounds 17, 18, 23, and 27 (Figure S5). Compounds 17, 18, and 27 are active on three DF proteins. […] In contrast, compound 23 is selective for DF2, with residual signals (at the highest employed concentration of 62.5 μM) of 51 and 87% for DF1 and DF3, respectively.
(§7) GST-YTHDC1, GST-YTHDF1, GST-YTHDF2, and GST-YTHDF3 were purified as previously reported. The HTRF assay was assembled as detailed in ref with the only difference being that the starting concentration of the dose–response experiments used for the IC50 determination was variated dependently from the tested compound. The same protocol was applied to the four proteins. The competitive inhibition data of GST-YTHDF1 (single dose experiment at 100 μM compound concentration and dose–response curves), GST-YTHDF3 (single dose experiment at 100 μM compound concentration and dose–response curves), and GST-YTHDF2 (single dose experiment at 100 μM compound concentration) were normalized as described in ref to mitigate interference. The signal was measured as described in ref .

GST-YTHDF3 = target: T4, GST-YTHDF3 (Homo sapiens, UniProt Q7Z739); assay: HTRF-based binding assay, DF3; conditions: HTRF, 100 µM compound, normalized
T4 construct: made in house
T4 sequence (Q7Z739 1-585): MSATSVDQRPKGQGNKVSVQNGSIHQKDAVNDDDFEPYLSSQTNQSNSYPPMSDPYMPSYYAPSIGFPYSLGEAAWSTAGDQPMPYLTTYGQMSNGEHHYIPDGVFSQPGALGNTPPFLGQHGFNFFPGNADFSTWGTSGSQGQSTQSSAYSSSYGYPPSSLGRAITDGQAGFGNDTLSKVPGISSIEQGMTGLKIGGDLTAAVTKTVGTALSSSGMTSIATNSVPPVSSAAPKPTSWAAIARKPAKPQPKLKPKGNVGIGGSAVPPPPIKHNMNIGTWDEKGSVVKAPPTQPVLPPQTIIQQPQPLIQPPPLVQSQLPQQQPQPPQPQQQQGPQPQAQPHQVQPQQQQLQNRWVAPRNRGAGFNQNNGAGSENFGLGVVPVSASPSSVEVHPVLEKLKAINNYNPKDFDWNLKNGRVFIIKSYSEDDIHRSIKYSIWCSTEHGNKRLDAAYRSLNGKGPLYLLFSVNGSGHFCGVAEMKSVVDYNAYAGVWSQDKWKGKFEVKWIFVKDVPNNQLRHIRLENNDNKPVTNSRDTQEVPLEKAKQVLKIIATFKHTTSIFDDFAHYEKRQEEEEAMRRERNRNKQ
Protocol: as §5, §6, §7

YTHDF2 = target: T5, YTHDF2 (Homo sapiens, UniProt Q9Y5A9); assay: DNA-fluorescence polarization (FP) competition assay, DF2; assay type: binding; conditions: Cheng-Prusoff from FP IC50, probe Kd 5 nM; two biological replicates
T5 sequence (Q9Y5A9 1-579): T1 sequence (Q9Y5A9 1-579)
Protocol: An FP competition assay was used to further validate the binding of the compounds to DF2. The main difference with respect to a previously published FP assay is the use of an oligo-DNA as competitor ligand (see Materials and Methods section). […] These differences might originate from the varying conditions in the two assays, such as the competitor mRNA (5′-biotin-[…](m6A)-CUAAGCU-3′) in HTRF and DNA (5′-FAM-[…](m6A)-CTAAGCT-3′) in FP, the salt concentration (150 mM NaCl and 100 mM KF in HTRF, and 150 mM NaCl in FP), and the pH (7.5 in HTRF and 7.4 in FP). The FP-based assay was also employed to assess the selectivity against DC1 and DC2 (see Selectivity section).
as §1, §2, §3, §4

Row | Structure (SMILES) | IC50 (GST-YTHDF2) [µM] | Kd (YTHDC2) [µM] | Single-dose residual signal at 100 µM, DF2 (GST-YTHDF2; HTRF) [%] | Single-dose residual signal at 100 µM, DF1 (GST-YTHDF1) [%] | Single-dose residual signal at 100 µM, DF3 (GST-YTHDF3) [%] | further results
1 | O=c1[nH]c(=S)[nH]c2scc(-c3cccs3)c12 [Compound S70] | – | – | – | – | – | % at 100 µM (GST-YTHDF2; HTRF): 45%; Residual signal at 1 mM concentration (GST-YTHDF2; HTRF): 49%
2 | COc1cccc2c1OCc1sc3[nH]c(=S)[nH]c(=O)c3c1-2 [Compound S73] | – | – | – | – | – | % at 100 µM (GST-YTHDF2; HTRF): 22%; Residual signal at 1 mM concentration (GST-YTHDF2; HTRF): 64%
3 | O=c1[nH]c(=S)[nH]c2scc(-c3ccccc3)c12 [Compound S74] | 94 | > 1000 | – | – | – | –
4 | CCOC(=O)c1ccc(Cc2cc3c(=O)[nH]c(=S)[nH]c3s2)cc1 [Compound S86] | – | 210 | – | – | – | % at 125 μM (printed in IC50 column, IC50 could not be determined) (GST-YTHDF2; HTRF, 125 μM compound): 63%

Second part, led by results:

Row | IC50 (GST-YTHDF2) [µM] | Kd (YTHDC2) [µM] | Single-dose residual signal at 100 µM, DF2 (GST-YTHDF2; HTRF) [%] | Single-dose residual signal at 100 µM, DF1 (GST-YTHDF1) [%] | Single-dose residual signal at 100 µM, DF3 (GST-YTHDF3) [%] | Structure (SMILES) | further results
5 | 23 | – | – | – | – | CCN1CCc2c(sc3[nH]c(=S)n(N)c(=O)c23)C1 [Compound S69] | –
6 | 38 | > 1000 | 8 | 17 | 22 | Cc1cc2c(=O)[nH]c(=S)[nH]c2s1 [Compound S78] | –
7 | 32 | – | 9 | 15 | 29 | Cc1c(C(=O)O)sc2[nH]c(=S)[nH]c(=O)c12 [Compound S80] | –
8 | 25 | > 1000 | 9 | 17 | 40 | Cc1c(C(=O)NCCCCO)sc2[nH]c(=S)[nH]c(=O)c12 [Compound S83] | –
9 | 29 | 100 | – | – | – | O=C(O)c1ccc(Cc2cc3c(=O)[nH]c(=S)[nH]c3s2)cc1 [Compound S87] | Kd (YTHDF2): 18 µM
10 | 28 | 120 | – | – | – | Cc1csc2[nH]c(=S)[nH]c(=O)c12 [Compound S88] | Kd (YTHDF2): 8.1 µM
